From patent US8637531B2, “Pyrido(3,2-d)pyridmidines useful for treating viral infections” (Gilead Sciences, Inc., priority 2006, dated 2014)

Key:
[1] = CC50 assay in Huh-7 HCV replicon cells (CellTiter-Glo); type: cell-based; details: human, 3 days incubation, CellTiter-Glo luminescence
Description: (§1) The anti-HCV activity of the pyrido[3,2-d]pyrimidine derivatives of this invention was tested in a human hepatoma Huh-7 cell line harbouring a HCV replicon. The assay comprised the following steps:
(§2) Step 1: Compound Preparation and Serial Dilution
(§3) • 1. for water soluble pyrido[3,2-d]pyrimidine derivatives, a volume of 500 μL of solution in cell media (DMEM, 10% FBS, P/S, L-Glutamine) was prepared with a concentration being twice the concentration of the starting final serial dilution concentration. A volume of 150 μL of the solution was added to the pre-specified wells in column 1 of a 96-well cell culture plate (PerkinElmer, white plate, cat. #6005181, for EC50 assay; black plate, cat. #6005182 for CC50 assay). The rest of the plate, columns 2-12, was filled with 100 μL of cell media. The plate was then placed on a Precision 2000 Workstation to start the serial dilution. Compounds were diluted three times each step from column 1 to column 10. Column 11 was used as a blank control (no compound added). • 2. for pyrido[3,2-d]pyrimidine derivatives requiring DMSO to dissolve, serial dilution is performed in 50% DMSO in a 384-well plate. A solution containing a compound at 100-fold concentration of the starting final serial dilution concentration was prepared in 50% DMSO and added to the pre-specified wells in column 1 of a polypropylene 384-well plate. The plate was then placed on a Precision 2000 Workstation to start the serial dilution. After the serial dilution, a volume of 2 μL of the solution was transferred from the 384-well plate to a 96-well cell culture plate containing 100 μL of cell media on a Biomek FX Workstation. The DMSO concentration in the final assay condition was 0.5% after cells are added to the plate and the total volume in each well is brought to 200 μL. Step 2: to each well of the serial dilution plate prepared above, 100 μL of cell media containing 6000 suspended Huh-7 HCV replicon cells was added with a Multidrop workstation. The plates were incubated for 3 days at 37° C. with 5% CO2. Step 3: Detection: • a) for the EC50 assay, the media in a 96-well cell culture plate was aspirated with a Biotek EL405 plate-washer. A volume of 200 μL of a solution containing a 1:1 mixture of cell-lysis buffer (Promega, Luciferase Cell Culture Lysis 5× Reagent, cat. #E1531) and luciferase substrate solution (Promega, Luciferase Assay, cat. # E4550) was added to each well of the plate with Multidrop. The plate was incubated for 30 minutes at room temperature before the luminescence signal was measured with a TopCount plate-reader. • b) for the CC50 assay, a volume of 100 μL of pre-mixed CellTiter-Glo (Promega, cat. # G7572) solution is added directly to the cell culture in each well of the plate and the luminescence signal is measured with a TopCount plate-reader after 10 minutes of incubation at room temperature.
the 50% cytostatic concentration (CC50), i.e. the concentration that results in 50% inhibition of cell growth.

HCV replicon = assay: Anti-HCV replicon assay (EC50, luciferase); type: cell-based; details: Hepatitis C virus, 72 h; human hepatoma Huh-7 cell line harbouring a HCV replicon, 3 days incubation, luciferase luminescence
Description: as §1, §2, §3
Results in table 13 are expressed by the following data: • the 50% effective concentration (EC50), i.e. the concentration that protects 50% of the cell monolayer from virus-induced cytopathic effect, and […]

SMILES	CC50 at 3 days [1]	EC50 (HCV replicon)	melting point
Nc1nc(OCCN2CCOCC2)c2nc(-c3ccc(F)cc3)ccc2n1 [Example 21, 6-(4-fluoro-phenyl)-4-(2-morpholin-4-yl-ethoxy)-pyrido[3,2-d]pyrimidin-2-ylamine]	> 20 µM	0.3 to 1 µM	
Nc1nc(O[C@@H]2CCOC2)c2nc(-c3ccc(F)cc3)ccc2n1 [Example 17, 2-amino-4-[3(R)-tetrahydrofuranyloxy]-6-(4-fluorophenyl)-pyrido(3,2-d) pyrimidine]	> 20 µM	< 0.3 µM	
CCOCCOc1nc(N)nc2ccc(-c3ccc(F)cc3)nc12 [Example 24, 4-(2-ethoxy-ethoxy)-6-(4-fluoro-phenyl)-pyrido[3,2-d]pyrimidin-2-ylamine]	> 20 µM	< 0.3 µM	
CS(=O)(=O)CCOc1nc(N)nc2ccc(-c3ccc(F)cc3)nc12 [Example 19, 2-amino-4-[2-(methylsulfonyl)ethoxy]-6-(4-fluorophenyl)-pyrido(3,2-d) pyrimidine]	> 20 µM	< 0.3 µM	
Nc1nc(OC2CCCC2)c2nc(-c3ccc(F)cc3)ccc2n1 [Example 11, 2-amino-4-(cyclopentoxy)-6-(4-fluorophenyl)pyrido(3,2-d)pyrimidine]	> 20 µM	< 0.3 µM	
Nc1nc(OCC2CCCO2)c2nc(-c3ccc(F)cc3)ccc2n1 (stereo not drawn) [Example 35, 2-amino-4-(tetrahydro-2-furanmethoxy)-6-(4-fluorophenyl)-pyrido(3,2-d)pyrimidine]	10 to 20 µM	0.3 to 1 µM	193 °C
Nc1nc(O[C@H]2CCOC2)c2nc(-c3ccc(F)cc3)ccc2n1 [Example 16, 2-amino-4-[3(S)-tetrahydrofuranyloxy]-6-(4-fluorophenyl)-pyrido(3,2-d)pyrimidine]	> 20 µM	< 0.3 µM	
COC[C@@H](C)Oc1nc(N)nc2ccc(-c3ccc(F)cc3)nc12 [Example 38, 2-amino-4-[(R)-1-methoxy-2-propoxy]-6-(4-fluorophenyl)-pyrido(3,2-d)pyrimidine]	10 to 20 µM	< 0.3 µM	
CCC(CC)Oc1nc(N)nc2ccc(-c3ccc(F)cc3)nc12 [Example 20, 4-(1-ethyl-propoxy)-6-(4-fluoro-phenyl)-pyrido[3,2-d]pyrimidin-2-ylamine]	< 10 µM	< 0.3 µM	
CCOC(C)COc1nc(N)nc2ccc(-c3ccc(F)cc3)nc12 (stereo not drawn) [Example 5, 2-amino-4-(2-ethoxy-1-propoxy)-6-(4-fluorophenyl)pyrido(3,2-d)pyri-midine]	> 20 µM	< 0.3 µM	
Nc1nc(OCC2CCCC2)c2nc(-c3ccc(F)cc3)ccc2n1 [Example 10, 2-amino-4-(cyclopentylmethoxy)-6-(4-fluorophenyl)pyrido(3,2-d)pyrimidine]	> 20 µM	0.3 to 1 µM	
CSCCOc1nc(N)nc2ccc(-c3ccc(F)cc3)nc12 [Example 8, 2-amino-4-[2-(methylthio)ethoxy]-6-(4-fluorophenyl)pyrido(3,2-d)pyrimidine]	> 20 µM	< 0.3 µM	
Nc1nc(OCC2CC2)c2nc(-c3ccc(F)cc3)ccc2n1 [Example 22, 4-cyclopropylmethoxy-6-(4-fluoro-phenyl)-pyrido[3,2-d]pyrimidin-2-ylamine]	> 20 µM	< 0.3 µM	
CC(C)OCCOc1nc(N)nc2ccc(-c3ccc(F)cc3)nc12 [Example 6, 2-amino-4-(2-isopropoxyethoxy)-6-(4-fluorophenyl)pyrido(3,2-d)pyrimidine]	> 20 µM	< 0.3 µM	
Nc1nc(OC2CCC2)c2nc(-c3ccc(F)cc3)ccc2n1 [Example 9, 2-amino-4-(cyclobutoxy)-6-(4-fluorophenyl)pyrido(3,2-d)pyrimidine]	> 20 µM	< 0.3 µM	
COCCOc1nc(N)nc2ccc(-c3ccc(F)cc3)nc12 [Example 23, 6-(4-fluoro-phenyl)-4-(2-methoxy-ethoxy)-pyrido[3,2-d]pyrimidin-2-ylamine]	> 20 µM	< 0.3 µM	
Nc1nc(OCC2CCCCO2)c2nc(-c3ccc(F)cc3)ccc2n1 (stereo not drawn) [Example 34, 2-amino-4-(tetrahydropyran-2-methoxy)-6-(4-fluorophenyl)-pyrido(3,2-d)pyrimidine]	10 to 20 µM	0.3 to 1 µM	202 °C
Nc1nc(OC2CCCCC2)c2nc(-c3ccc(F)cc3)ccc2n1 [Example 32, 2-amino-4-cyclohexyloxy-6-(4-fluorophenyl)-pyrido(3,2-d)pyrimidine]	< 10 µM	0.3 to 1 µM	180 °C
Nc1nc(OCC2CCOC2)c2nc(-c3ccc(F)cc3)ccc2n1 (stereo not drawn) [Example 36, 2-amino-4-(tetrahydro-3-furanmethoxy)-6-(4-fluorophenyl)-pyrido(3,2-d)pyrimidine]	10 to 20 µM	< 0.3 µM	219 °C
CC#CCCOc1nc(N)nc2ccc(-c3ccc(F)cc3)nc12 [Example 14, 2-amino-4-(3-pentyn-1-oxy)-6-(4-fluorophenyl)pyrido(3,2-d)pyrimidine]	> 20 µM	> 1 µM	
Nc1nc(OC2CO[C@H]3OCC[C@@H]23)c2nc(-c3ccc(F)cc3)ccc2n1 (stereo partly drawn) [Example 18, 2-amino-4-[hexahydro-furo(2,3-b)furan-3-oxy]-6-(4-fluorophenyl)-pyrido(3,2-d) pyrimidine]	> 20 µM	< 0.3 µM	
CCCCOCCOc1nc(N)nc2ccc(-c3ccc(F)cc3)nc12 [Example 4, 2-amino-4-(2-butoxyethoxy)-6-(4-fluorophenyl)pyrido(3,2-d)pyrimidine]	> 20 µM	> 1 µM	
COC[C@H](C)Oc1nc(N)nc2ccc(-c3ccc(F)cc3)nc12 [Example 37, 2-amino-4-[(S)-1-methoxy-2-propoxy]-6-(4-fluorophenyl)-pyrido(3,2-d)pyrimidine]	> 20 µM	< 0.3 µM	
Nc1nc(OC2CCOCC2)c2nc(-c3ccc(F)cc3)ccc2n1 [Example 33, 2-amino-4-(tetrahydro-2H-pyran-4-oxy)-6-(4-fluorophenyl)-pyrido(3,2-d)pyrimidine]	10 to 20 µM	< 0.3 µM	
Nc1nc(OCC(F)F)c2nc(-c3ccc(F)cc3)ccc2n1 [Example 7, 2-amino-4-(2,2-difluoroethoxy)-6-(4-fluorophenyl)pyrido(3,2-d)pyrimidine]	> 20 µM	< 0.3 µM	
CCCOCCOc1nc(N)nc2ccc(-c3ccc(F)cc3)nc12 [Example 3, 2-amino-4-(2-propoxyethoxy)-6-(4-fluorophenyl)pyrido(3,2-d)pyrimidine]	> 20 µM	0.3 to 1 µM	
COC(C)(C)CCOc1nc(N)nc2ccc(-c3ccc(F)cc3)nc12 [Example 12, 2-amino-4-(3-methyl-3-methoxybutoxy)-6-(4-fluorophenyl)pyrido(3,2-d) pyrimidine]	> 20 µM	< 0.3 µM	
C=CC(C)(C)Oc1nc(N)nc2ccc(-c3ccc(F)cc3)nc12 [Example 13, 2-amino-4-(2-methyl-3-buten-2-oxy)-6-(4-fluorophenyl)pyrido(3,2-d)pyrimidine]	> 20 µM	> 1 µM	
